Experimental data: patent publication US12103952B2, “Methods for expressing proteins in axons” (Cornell University, priority 2010, dated 2024)

Test system: E15 dissociated DRG neurons
Assay: NGF-mediated retrograde survival in compartmented (Campenot) chambers, TUNEL assay
Assay type: cell-based, rat
Procedure: FIGS. 2A-E are results showing that local protein synthesis in axons is required for NGF-dependent survival. (A) Phospho-4E-BP1 levels increase in growth cones in response to NGF treatment. DRG neurons were incubated with NGF-replete or NGF-free media; phospho-4E-BP1 levels in axons were measured by immunofluorescence. Scale bar, 50 μm. (B) Quantification of total and phospho-4EBP1 in (A) p=0.012. Numbers on bars represent n axons per condition. (C) Schematic diagram of compartmented (Campenot) chambers. E15 dissociated DRG neurons are cultured in the cell body compartment and axons grow under a thinly applied silicone grease layer that seals the chamber with the Permanox® plastic culture slide. (D) Application of protein synthesis inhibitors to axons blocks NGF-mediated retrograde survival. Dissociated DRG neurons were grown in compartmentalized chambers, and vehicle or NGF was added to the axon compartment. 1 μM cycloheximide (CHX) or 40 μM anisomycin (Aniso) were added to the axon compartment concurrently with NGF media. Cell body compartments were kept NGF-free during the course of the experiment. Cells crossing the divider were retrogradely labeled with WGA-Alexa555 and only WGA-positive cell bodies were counted in the data set. Survival was assessed by TUNEL assay. Examples of non-apoptotic and apoptotic are indicated with closed and open arrows, respectively (Blue=DAPI, Green=TUNEL). Scale bar, 20 μm. (E) Quantification of results from (D). *p<0.001. Numbers on bars represent n cells per condition.
Campenot chambers were modified for FISH and Immunofluorescence analysis as follows: Teflon dividers were applied to poly-D-lysine, laminin and collagen (1 mg/ml)-coated Lab-Tek chambers (NUNC). The low autofluorescence of the Permanox® plastic in these chambers allows us to perform fluorescence analyses on these cultures much more readily than is possible using traditional cell culture plasticware. E15 dissociated DRG neurons were plated in the cell body compartment in media containing 100 ng/ml NGF and 20 μM 5′-fluorodeoxyuridine to inhibit glial growth. Media was changed every 2 DIV and NGF concentration in the cell body compartment was halved at each media change. At DIV 5, when axons had crossed the divide into the axonal compartment, NGF was withdrawn from the cell body compartment and experimental media containing NGF (0 ng/ml or 30 ng/ml) and/or drug treatments/siRNA transfection reagents was applied to the axon compartment for a further 2 DIV. All media were completely replaced every subsequent 12 hours to ensure purity of the conditions in the respective compartments. […]

[1] = axonal application together with NGF, 1 μM cycloheximide or 40 μM anisomycin, compared to NGF alone

Row | Compound | neuronal survival [1] | DRG survival (5 DIV compartmented cultures, NGF applied to either axons or cell bodies individually) | neuronal survival (NGF applied exclusively to the axonal compartment, cell body compartment NGF-free, 48 hour, compared to vehicle-treated axons)
1 | COc1ccc(C[C@H]2NC[C@H](O)[C@H]2OC(C)=O)cc1 [anisomycin] | significant reduction in survival | – | –
2 | C[C@@H]1C[C@@H]([C@H](O)CC2CC(=O)NC(=O)C2)C(=O)[C@@H](C)C1 [cycloheximide] | significant reduction in survival | – | –
3 | NGF: nerve growth factor | – | capable of supporting DRG survival | significant increase in neuronal survival
